Nine substances from patent publication US8772237B2, “Compositions and methods for counteracting effects of reactive oxygen species and free radicals” (Ischemix, Inc., priority 1999, dated 2014) can be followed below.

One experiment relates to catalase (CAT) protein. Put plainly: Western immunoblot of CAT protein in rat primary cortical cultures. The class given is cell-based. The following applies: for CAT: 5 hours at 37° C. How it is done:
(§1) Tissue culture experiments were carried out using primary cultures of rat brain cortical cells as previously described above in Example 2. Primary cultures from embryonic rat brain isolated at E-21 (21 day embryos) and incubated for five hours with various doses: 1, 10, 100 ng/ml of CMX-99672. Cytoplasmic proteins were isolated and analyzed for upregulation of SOD and CAT by Western immunoblots as described above. […] The Western blot was scanned to quantify the fold-increase in SOD production in cell cultures treated with the CMX-99672 peptide compound.
Representative peptide compounds were tested at various doses and compared for their ability to upregulate expression of genes for SOD and/or CAT in rat primary cortical cultures basically as described above. Cultures were incubated with a peptide compound for 5 hours at 37° C. Cytoplasmic protein fractions were prepared as described above. Cytoplasmic proteins were separated by gel electrophoresis and analyzed by Western immunoblots using antisera to SOD and CAT, respectively (Rockland, Inc., Gilbertsville, Pa.).
(In general: A western blot detects proteins with antibodies after separation by electrophoresis.)

For experiment [1], the system named is superoxide dismutase (SOD) protein. Put plainly: Western immunoblot of SOD protein in rat brain primary cortical cultures. The class given is cell-based. As to conditions: for SOD: 5 hours at 37° C. How it is done:
Primary cortical cultures were obtained by growing newborn rat brain cortical cells in Delbecco's modified Eagle medium supplemented with 25 μg/ml of gentamycin and 10% fetal calf serum. The cells were isolated from the E-21 cortex of rat brain, plated at a density of 1×10^5 per ml and grown to confluence within four to five days in an atmosphere containing air and 5% CO2 at 37° C. as described in Cornell-Bell et al., Science, 247: 470-473 (1990) and Cell Calcium, 12: 185-204 (1991). Cultures were grown in 20 ml flasks as a monolayer and then exposed to various concentrations of peptides for studies of the effects of peptides on upregulation of genes for SOD and CAT and on the transmigration of transcription factor AP-1 to cell nuclei. […]
as §1
Representative peptide compounds were tested at various doses and compared for their ability to upregulate expression of genes for SOD and/or CAT in rat primary cortical cultures basically as described above. Cultures were incubated with a peptide compound for 5 hours at 37° C. Cytoplasmic protein fractions were prepared as described above. Cytoplasmic proteins were separated by gel electrophoresis and analyzed by Western immunoblots using antisera to SOD and CAT, respectively (Rockland, Inc., Gilbertsville, Pa.). […]

Experiment [2] concerns middle cerebral artery (MCA) permanent occlusion stroke model. Kind of experiment: Permanent MCA 24-hour occlusion stroke model. The format is in vivo, Sprague-Dawley rats.
For experiment [3], the system named is transcription factor AP-1. Put plainly: Electrophoretic mobility shift assay (EMSA) for AP-1 activation in primary rat neurons / cortical cultures. The format is cell-based. How it is done:
Nuclear extracts for electrophoretic mobility shift assays (EMSAs) were prepared as described previously (Adams et al., J. Leukocyte Biol., 62: 865-873 (1997)) using 1.0-2.0×10^7 cells per sample. All buffers were freshly supplemented with dithiothreitol (DTT, 0.5 mM), protease inhibitors: PMSF (0.5 mM), chymostatin, peptstatin-A, aprotinin, antipain, leupeptin (each at 1 μg/ml), and phosphatase inhibitors: NaF (10 mM), ZnCl2 (1 mM), sodium orthovanadate (1 mM), and sodium pyrophosphate (5 mM). Aliquots of the final dialyzates were stored at −80° C. and discarded after use.
AP-1 transcription factor activation was assayed using an electrophoretic mobility shift assay (EMSA), as described by Adams et al., J. Leukoc. Biol., 62:865-873 (1997)). Cultures of primary rat neurons (Cornell-Bell et al., Cell Calcium, 12: 185-204 (1991)) were stimulated for 3 hours with various concentrations (0, 1, 10, 100 ng/ml) of peptide CMX-9236. Nuclear extracts prepared as described above were separated by gel electophoresis on non-denaturing gels and subjected to the EMSA procedure. This EMSA used an AP-1 synthetic duplex probe (Angel, P., 1987, Cell 49:729-739) having the sequence 5′-[…] (SEQ ID NO:33) and its antisense copy (complement strand), which were end-labeled with P^32 using polynucleotide kinase and (γ-P^32)-ATP. For the EMSA reaction, the labeled probe (0.5 pmol) was mixed with 3 μg of nuclear extract protein in a solution containing 10 mM Tris-HCl, pH 7.5, 50 mM NaCl, 1 mM EDTA, 1 mM dithiothreitol, 5% glycerol, 0.02% β-mercaptoethanol, and 1 μg of poly-dI/dC (Pharmacia). Reaction mixtures were incubated at 25° C. for 20 minutes to allow complete complex formation by the duplex with its appropriate AP-1 protein. The mixture was then electrophoresed under non-denaturing conditions through 4% polyacrylamide gels in 0.5×TBE buffer (45 mM Trisma base, 45 mM boric acid, 1 mM EDTA). The gels were dried on 3 mm paper. Bands were visualized by autoradiography at −80° C. with one intensifying screen and quantified by laser densitometry. The upregulation of AP-1 and the activation and upregulation process of AP-1 was compared to control cultures.
Primary cortical cell cultures were grown to confluence and used in in vitro cultures for determining the effects of various representative peptide compounds on upregulation of AP-1. […] Extracts were prepared from the nuclei isolated from the primary culture homogenates, purified, and analyzed for the presence of specific transcription factors using the electrophoretic mobility shift assay (EMSA) method. The binding of ^32P-labeled duplex DNA probes specific for activator protein-1 (AP-1) or nuclear factor κB (NF-κB) was analyzed and quantified by autoradiography. After a 3-hour incubation of the cultures with 1 ng/ml of the peptide CMX-9236 there was a 15-fold increase of AP-1 relative to […] control cultures. […] Thus, a small peptide compound that is less than 20 amino acids long can simulate the properties of large growth factors such as NGF and BDNF, which exist as dimers of protein chains with molecular weights of 13,259 and 13,500, respectively.

Experiment [4] concerns Superoxide Dismutase (SOD). Kind of experiment: In vivo upregulation of SOD in rat organs (Western immunoblot). Also noted: species or system Sprague-Dawley rats. The following applies: for SOD Activity: 6-hour treatment, 10 mg/kg i.v. How it is done: In vivo experiments were carried out in Sprague-Dawley rats (300-325 g) with solutions of CMX-1152 or CMX-99672. The animals were injected intravenously (iv) via the tail vein with a peptide compound. […] The animals were sacrificed by decapitation at 6, 12, 24, 48, and 72 hours post injection and dissected to isolate brain, liver, heart, kidney, lung organs, which were frozen at −70° C. for subsequent analysis. In addition, 2 ml samples of whole blood were taken from each animal. Half (1 ml) of each sample was centrifuged to remove nuclei and cell membranes to yield plasma. The remaining half was stored frozen as whole blood at −70° C.
Each tissue was thawed and homogenized in a Down's homogenizer using ten volumes of homogenizer buffer (see, Adams et al., General Cellular Biochemistry, 77: 221-233 (2000); buffer as described in Adams et al., J. Leukoc. Biol., 62: 865-875 (1967)) to obtain a crude cytoplasmic fraction. The tissue homogenates were centrifuged (14,000×g for 5 minutes at 4° C.) to yield the supernatant purified cytoplasmic protein fractions as described in Adams et al. (J. Cell. Biochem., 77: 221-233 (2000)). A 10 μg sample of each protein fraction was then separated by SDS polyacrylamide gel electrophoresis (SDS-PAGE) and analyzed for SOD and CAT content by Western blot assay.
Control for measurement of unstimulated levels of SOD and CAT were obtained from two vehicle only (i.e., no peptide compound) injected rats that were sacrificed at 24 and 72 hours post injection. Both had essentially the same unstimulated levels of SOD and CAT. Standard quantities of each cytoplasmic fractions (10 μg) were loaded on a lane of a gel for electrophoretic separation and Western immunoblot analysis (Adams et al., J. Cell. Biochem., 77: 221-233 (2000)). The stained gels were photographed and scanned by laser densitometry to quantify intensities in comparison to enzyme levels for control vehicle treated rats.

Where [5] appears, read: five hours, doses 1, 10, 100 ng/ml.

Ends that are not written are not given here. * marks the point of attachment. Palmitoyl = CCCCCCCCCCCCCCCC(=O)*; Gga = not defined here

For Asp Gly [CMX-99672], the “upregulation of CAT (in words)” value in the experiment on catalase (CAT) protein (setting [5]) was “Comparable data was obtained for CAT”. Also, in experiment [1] (setting [5]), the “increase in SOD” value is “approximately 30 fold” and the “increase in SOD-related protein” value is recorded as roughly 20 fold.

On to “[Palm] Asp Gly Asp Gly Phe Ala (Palmitoyl-DGDGFA) [CMX-9960]”, for which, in experiment [1] (Dose 6.7 pmol/ml), the SOD was 527 % Control.

KKQTLQFR registered a CAT with catalase (CAT) protein (Dose 95 pmol/ml) of 400 % Control. In experiment [1] (Dose 95 pmol/ml), the SOD was 350 % Control.

Take “[DHA]-Lys Lys Asp Gly Asp Gly Asp Phe Ala Ile Asp Ala Pro Glu [CMX-9236D]”: in experiment [2] (Dose 0.03 mg/hr), the “Percent Neurological Rescue” value is recorded as 50 ± 18% and the “Percent Rescue (percent decrease in infarct size vs vehicle controls)” value is given as 48 ± 12%.

As to “[Gga] Asp Gly Asp Gly Phe Ala (Gga-DGDGFA; not fully specified; printed as [Gga] Asp Gly Asp Gly Phe Ala; reading uncertain) [CMX-99661]”, in experiment [1] (Dose 6.7 pmol/ml), the SOD was 463 % Control.

In the case of [Ac] Thr Val Ser [CMX-99647], in experiment [1] (Dose 6.7 pmol/ml), the SOD stood at 2066 % Control.

Regarding KKDGDGDFA [CMX-9902], in experiment [2] (Dose 0.05 mg/hr), the “Percent Neurological Rescue” value was 35 ± 12% and the “Percent Rescue (percent decrease in infarct size vs vehicle controls)” value came out at 29 ± 7%. In experiment [3], the “activation / upregulation of AP-1 (in words)” value is listed as “increased nuclear migration of AP-1”. Also, the “upregulation of SOD proteins (in words)” value in experiment [1] (culture in vitro studies) was “upregulated SOD proteins”.

Take Asp Gly [CMX-1152]: the “SOD Activity” value was 520 % of Control in experiment [4] (Brain); 550 % of Control in experiment [4] (Heart); 200 % of Control in experiment [4] (Kidney); 200 % of Control in experiment [4] (Liver); 520 % of Control in experiment [4] (Lung); 420 % of Control in experiment [4] (Plasma). Also, in experiment [4] (Whole Blood), the “SOD Activity” value was 490 % of Control. In addition, the “upregulation in SOD production relative to control” value in experiment [4] (brain, heart, lung, and blood) was “four to five-fold”; in experiment [4] (liver and kidney) it was “approximately two-fold”. The same substance gave an SOD in experiment [1] (Dose 6.7 pmol/ml) of 2143 % Control. The “SOD Upregulation” value in experiment [1] (Dose 1 ng/ml) was found to be 170 % Control; in experiment [1] (Dose 10 ng/ml), 330 % Control; in experiment [1] (Dose 100 ng/ml) it was 420 % Control.

Regarding “[Ac] Asp Gly Asp Gly Phe Ala (Ac-DGDGFA) [CMX-99655]”, the CAT in the experiment on catalase (CAT) protein (Dose 8 pmol/ml) was 520 % Control. For the same substance, the SOD in experiment [1] (Dose 8 pmol/ml) was found to be 750 % Control.
